Results on 23 compounds are retold here after patent US20250304571A1, “BIOLOGICALLY ACTIVE COMPOUNDS AND METHODS THEREOF” (Suzhou Keen Therapeutics Co., Ltd., priority 2022, published 2025).

Data set [1] relates to KP4 (pancreatic ductal adenocarcinoma) cells. Nature of the data set: Cell viability (CellTiter Glo) assay, inhibition of KP4 cell proliferation. In kind it is cell-based. As to conditions: Homo sapiens, KP-4; KP4 cells, 72 hours, CellTiter Glo; read-out: IC50, inhibition of KP4 cell proliferation. A general note: In ATP-based viability assays light output follows the ATP content of the culture.

The subject of data set [2] is HT-1080 (fibrosarcoma) cells. Nature of the data set: Cell viability (CellTiter Glo) assay, inhibition of HT-1080 cell proliferation. In kind it is cell-based. As to conditions: Homo sapiens, HT-1080 cells, 72 hours.
Data set [3] relates to 786-O (renal cell carcinoma) cells. The data set is described as follows: Cell viability (CellTiter Glo) assay, inhibition of 786-O cell proliferation. In kind it is cell-based. To be noted: Homo sapiens, 786-0; 786-O cells, 72 hours, CellTiter Glo; read-out: IC50, inhibition of 786-O cell proliferation.
For a further data set, the system named is 786-O cells. Nature of the data set: Anti-proliferation activity in 786-O cells in the presence of a ferroptosis inhibitor (Ferrostatin-1 or Liproxstatin-1). Format: cell-based. As to conditions: Homo sapiens. As for the experimental part:
In one assessment, cells (KP4, 786-0 and HT-1080) were seeded (700 cells/well, 1000 cells/well or 3000 cells/well) in 384-well or 96-well plates and incubated at 37° C./5% CO2 for 22-24 hours. A series of 8 different concentrations of compound stocks were created by 5-fold serial dilution in DMSO. These compounds were further diluted in culture media and were then added to cells (final concentrations: 100 μM, 20 μM, 4 μM, 0.8 μM, 0.16 μM, […].). After 72 hours of incubation, 30 μL of CellTiter Glo reagent (Promega) was added to each well and luminescence was measured after 10 minutes using SpectraMax M5/M5e (Molecular Devices). Luminescence from cells treated with DMSO alone was set as background and % of inhibition was calculated as follows: […]
Anti-proliferation activity of various compounds was also tested in the presence of an ferroptosis inhibitor, Ferrostatin-1 (2 μM) or Liproxstatin-1 (2 μM). Certain results are provided in Table 4 and Table 5 as examples. “A” indicates an IC50≤100 nM; “B” indicates an IC50 of >100 nM and ≤500 nM; “C” indicates an IC50>500 nM and ≤5 μM; and “D” indicates an IC50>5 μM.

Data set [4] is described as follows: Whole blood stability, human. Format: in vitro ADME. To be noted: 37° C.; for % Remaining: 1 μM; for half-life at 1 μM: fresh whole blood.
A short description of data set [5]: Whole blood stability, mouse. Format: in vitro ADME. As to conditions: 37° C.; for % Remaining: 1 μM; for half-life at 1 μM: male, Balb/c, fresh whole blood. As for the experimental part:
For example, in some embodiments, provided compounds have suitable stability profiles for various applications including therapeutic uses. Various technologies are available in the art for assessing properties, e.g., stability, of compounds and compositions, and can be utilized in accordance with the present disclosure. Certain useful technologies are described herein as examples. In some embodiments, stability was assessed in fresh blood samples, e.g., of human or mouse.
In some embodiments, fresh blood samples were collected from male Balb/c mouse with EDTA-K2 as anti-coagulant. Blood was collected before experiment and stored at 2˜8° C., and equilibrated to room temperature before use. Compounds were dissolved in DMSO at 10 mM concentration. Glibenclamide, used as an internal standard (1S), was prepared in DMSO at 1 mg/mL concentration. An aliquot of 594 μL of blank blood was spiked with 6 μL of working solution (100 μM) to achieve 1 μM of final concentration for test compounds. Solution samples were incubated for 0, 10, 30, 60, 90 and 120 minutes at 37° C., e.g., in a water bath.
An Agilent ZORBAX XDB-C18 (3.5 μm, 50×2.1 mm) was used for HPLC analysis. Mobile phases were 0.1% formic acid in water (mobile phase A), and 0.1% formic acid in acetonitrile (mobile phase B). The injection volume was 10 μL. Mass spectrometer was calibrated and tuned for each test compound. The % remaining of test compound in blood was calculated using the following equation: […]

Where [6] appears, read: 786-0, Ferrostatin-1 (2 μM), read-out: IC50, With Ferrostatin-1.
Setting [7] is: 786-0, no ferroptosis inhibitor, read-out: IC50, No Ferroptosis Inhibitor (Table 4).
Setting [8] is: 786-0, 72 h, no ferroptosis inhibitor, read-out: IC50, No Ferroptosis Inhibitor (Table 5).

pIC50: −log10 of the molar value. Read-outs that look alike come from different tables or passages of the source. Where only a bound is given, the exact number is not on record here.

As for `C[C@@H]1CN(C(=N)OCc2nc(Nc3ccc(Oc4ccccc4)cc3)c3cc[nH]c3n2)C[C@H](C)N1C(=O)OC(C)(C)C` [Compound D2], the pIC50 in data set [1] is > 7.00; in data set [2], 6.30 to 7.00.

`CN(C)C(=N)OCc1nc(Nc2ccc(Oc3ccccc3)cc2)c2cc[nH]c2n1` [Compound D3]: the pIC50 in data set [1], in data set [3] and in data set [2] was 5.30 to 6.30 in each case.

With `N=C(OCc1nc(Nc2ccc(Oc3ccccc3)cc2)c2cc[nH]c2n1)N1CCC(F)(F)CC1` [Compound D6], the pIC50 in data set [1] is 6.30 to 7.00; in data set [3] it was 6.30 to 7.00; in the data set on 786-O cells (setting [6]) it was < 5.30; in the data set with 786-O cells (setting [7]), 6.30 to 7.00.

As a reminder, the half-life is the time needed for the level to fall by half in the phase considered. High values mean slow decline, low ones rapid decline. With `CC1(C)CN(c2ccc(Oc3ccccc3)cc2)c2nc(COC(=N)N3CCC(F)(F)CC3)nc(N)c21` [Compound E2], the pIC50 (in data set [3]; in data set [2]; in the data set with 786-O cells (setting [8])) was > 7.00 each time. Besides, the entries for the “% Remaining” value in data set [4] (@ 240 min) and in data set [5] (@ 240 min) were 69.7% @ 240 min and 63.9% @ 240 min, respectively. Further, the results for the half-life at 1 μM in data set [4] and in data set [5] were 7.85 h and 6.47 h, respectively.

`CC1(C)CN(c2ccc(Oc3ccccc3)cc2)c2nc(COC(=N)N3CCCCC3C(F)(F)F)nc(N)c21` (stereo not shown) [Compound E4]: the pIC50 in data set [3] and in data set [2] was > 7.00 throughout.

In the case of `CCN1CCN(C(=N)OCc2nc(N)c3c(n2)N(c2ccc(Oc4ccccc4)cc2)CC3(C)C)C2(CC2)C1=O` [Compound E5], the pIC50 in data set [3] and in data set [2] was 6.30 to 7.00 in each case.

For the compound `C[C@@H]1CN(c2ncc(N3C(=O)C4(CCCC4)c4c(N)nc(COC(=N)N5CCC[C@@H]5C(F)(F)F)nc43)cn2)C[C@H](C)O1` [Compound E87, (4′-amino-7′-(2-((2S,6R)-2,6-dimethylmorpholino)pyrimidin-5-yl)-6′-oxo-6′,7′-dihydrospiro[cyclopentane-1,5′-pyrrolo[2,3-d]pyrimidin]-2′-yl)methyl (R)-2-(trifluoromethyl)pyrrolidine-1-carbimidate], the pIC50 (in data set [3]; in the data set on 786-O cells (setting [8])) was > 7.00 throughout.

Consider `CNc1nc(COC(=N)N2CCC[C@@H]2C(F)(F)F)nc2c1C1(CCCC1)C(=O)N2c1cnc(N2C[C@@H](C)O[C@@H](C)C2)nc1` [Compound E88, (7′-{2-[(2R,6S)-2,6-dimethylmorpholin-4-yl]pyrimidin-5-yl}-4′-(methylamino)-6′-oxo-6′,7′-dihydrospiro[cyclopentane-1,5′-pyrrolo[2,3-d]pyrimidin]-2′-yl)methyl (2R)-2-(trifluoromethyl)pyrrolidine-1-carboximidate], for which the pIC50 (in data set [3]; with 786-O cells (setting [8])) was > 7.00 each time.

In the case of `N=C(OCc1nc(N)c2c(n1)N(c1cnc(N3C4CCC3COC4)nc1)C(=O)C21CCCC1)N1CCC[C@@H]1C(F)(F)F` [Compound E93], the pIC50 (in data set [3]; in the data set with 786-O cells (setting [8])) was > 7.00 throughout.

As for `CNc1nc(COC(=N)N2CCC[C@@H]2C(F)(F)F)nc2c1C1(CCCC1)C(=O)N2c1cnc(N2C3CCC2COC3)nc1` [Compound E94], the pIC50 (in data set [3]; in the data set with 786-O cells (setting [8])) was > 7.00 throughout.

In the case of `CNc1nc(COC(=N)N2CCOCC2C(F)(F)F)nc2c1C1(CCCC1)C(=O)N2c1cnc(N2C[C@@H](C)O[C@@H](C)C2)nc1` (stereo partly shown) [Compound E97], the pIC50 (in data set [3]; in the data set on 786-O cells (setting [8])) was 6.30 to 7.00 in each case.

As to `CNc1nc(COC(=N)N2CCC[C@@H]2C(F)(F)F)nc2c1C1(CCCC1)C(=O)N2c1cnc(C2CCOCC2)nc1` [Compound E99], the pIC50 (in data set [3]; in the data set with 786-O cells (setting [8])) was 5.30 to 6.30 throughout.

With `N=C(OCc1nc(N)c2c(n1)N(c1cnc(C3CCOCC3)nc1)C(=O)C21CCCC1)N1CCC[C@@H]1C(F)(F)F` [Compound E100, (4′-amino-6′-oxo-7′-(2-(tetrahydro-2H-pyran-4-yl)pyrimidin-5-yl)-6′,7′-dihydrospiro[cyclopentane-1,5′-pyrrolo[2,3-d]pyrimidin]-2′-yl)methyl (R)-2-(trifluoromethyl)pyrrolidine-1-carbimidate], the pIC50 (in data set [3]; with 786-O cells (setting [8])) was 6.30 to 7.00 throughout.

Take `N=C(OCc1nc(N)nc(Nc2ccc(Oc3ccccc3)cc2)n1)N1CCOCC1` [Compound F6]: the pIC50 was > 7.00 in data set [1], 6.30 to 7.00 in data set [3] and > 7.00 in data set [2]. The “% Remaining” value in data set [4] (@ 120 min) is on record as 84% @ 120 min; in data set [5] (@ 120 min), 78% @ 120 min. For the same compound, the half-life at 1 μM in data set [4] came out at 6.07 h; in data set [5] it was 5.65 h.

For the compound `N=C(NC1CCCCC1)OCc1nc(N)nc(Nc2ccc(Oc3ccccc3)cc2)n1` [Compound F9], the pIC50 in data set [1] is 6.30 to 7.00; in data set [3] it was > 7.00; in data set [2] it was 6.30 to 7.00.

Take `N=C(OCc1nc(N)nc(Nc2ccc(Oc3ccccc3)cc2)n1)N1CCCCC1C(F)(F)F` (stereo not shown) [Compound F12]: the pIC50 (in data set [3]; in the data set on 786-O cells (setting [8])) was > 7.00 throughout.

Turning to `N=C(OCc1nc(N)nc(Nc2ccc(Oc3ccccc3)cc2)n1)N1CCC(F)(F)CC1` [Compound F13], the pIC50 is > 7.00 in data set [1]; > 7.00 in data set [3]; > 7.00 in data set [2]; < 5.30 in the data set with 786-O cells (setting [6]); > 7.00 in the data set on 786-O cells (setting [7]). In addition, the entries for the “% Remaining” value in data set [4] (@ 240 min) and in data set [5] (@ 240 min) were 57.6% @ 240 min and 74% @ 240 min, respectively. Also, the half-life at 1 μM in data set [4] was 5.35 h; in data set [5], 7.95 h.

For `N=C(OCc1nc(N)nc(Nc2ccc(Oc3ccccc3)cc2)n1)N1CCCCC1=O` [Compound F18], the pIC50 in data set [2] is 5.30 to 6.30.

As to `CCN1CCN(C(=N)OCc2nc(N)nc(Nc3ccc(Oc4ccccc4)cc3)n2)C2(CC2)C1=O` [Compound F19], the pIC50 was 6.30 to 7.00 in data set [3], 5.30 to 6.30 in data set [2] and 6.30 to 7.00 in the data set on 786-O cells (setting [8]).

As to `N=C(NC12CC3CC(CC(C3)C1)C2)OCc1nc(N)nc(Nc2ccc(Oc3ccccc3)cc2)n1` [Compound F20], the pIC50 (in data set [3]; in data set [2]; in the data set on 786-O cells (setting [8])) was 6.30 to 7.00 throughout.

Turning to `C#CCOc1cccc(Oc2ccc(Nc3nc(N)nc(COC(=N)N4CCC(F)(F)CC4)n3)cc2)c1` [Compound F21], the pIC50 (in data set [3]; in the data set on 786-O cells (setting [8])) was > 7.00 throughout.

Take `CN(C(=N)OCc1nc(N)nc(Nc2ccc(Oc3ccccc3)cc2)n1)C1CCCCC1` [Compound F22]: the values for the pIC50 (in data set [3]; in data set [2]; with 786-O cells (setting [8])) were > 7.00, 6.30 to 7.00 and > 7.00, respectively.

For `CN(C)C(=N)OCc1nc(N)nc(Nc2ccc(Oc3ccccc3)cc2)n1` [Compound F31], the pIC50 in data set [1], in data set [3] and in data set [2] was 6.30 to 7.00 throughout.
